The term inhibition denotes the relative decrease from the control value, in per cent.

The values that follow come from patent US5714155A, “Ethylenediamine derivative in a cosmetic or dermatological composition, and composition containing in particular a product having an irritant side effect” (Societe L'oreal S.A., priority 1994, dated 1998).

The subject of the test is contraction of guinea pig ileum by substance P. In words: Antagonism of the in vitro contraction of guinea pig ileum by substance P. The format is cell-based. The conditions noted are these: for substance P antagonism (conclusion of the tests): conclusion from NK1 binding and guinea pig ileum tests. As for the experimental part:
b). Model of antagonism of the in vitro contraction of guinea pig ileum by substance P (10 nM) according to the technique described by Dion et al., Life Sci. 41: 2269-78 (1987) and Patacchini et al., Eur. J. Pharmacol. 215: 93-8 (1992).

`Cc1cc(C)cc(CNCCNCc2cc(C)cc(C)c2)c1` [Example 1, N,N'-bis(3,5-dimethylbenzyl)ethylenediamine]: the “substance P antagonism (conclusion of the tests)” value is “substance P antagonists”. Further, the inhibition at 1 µM (Cavia porcellus, 1 μM, substance P 10 nM) is -24%. Also, under “Cavia porcellus, 10 μM, substance P 10 nM”, the inhibition at 10 µM was -92%. Further, the inhibition at 100 µM (Cavia porcellus, 100 μM, substance P 10 nM) is -100%.

For the molecule `COc1cc(CNCCNCc2cc(OC)cc(OC)c2)cc(OC)c1` [Example 2, N,N'-bis(3,5-dimethoxybenzyl)ethylenediamine], the “substance P antagonism (conclusion of the tests)” value is reported as “substance P antagonists”.
